Data on 2 molecules can be found in paper PMC5642495, “Characterization of a novel androgen receptor (AR) coregulator RIPK1 and related chemicals that suppress AR-mediated prostate cancer growth via peptide and chemical screening” (Oncotarget, 2017).

One data set concerns AR transactivation. In words: AR transcriptional reporter assay in PC-3 cells. The data set is classed as cell-based, human. The note with it: 10 nM DHT. On the procedure:
Figure 1 Associations between RIPK1 and AR (A) Co-IP of Flag-RIPK1 with Flag-AR in the 293T cell line. Extracts of 293T cells overexpressing 3xFlag-RIPK1 and 3xFlag-AR were treated with […]. IP was performed using anti-AR (C19) or anti-RIPK1 antibody or normal rabbit serum (negative control), followed by immunoblotting (IB) with antibodies against AR or RIPK1. (B) RIPK1 interacts with full-length AR and the N- and C-terminal regions of AR in GST pull-down assays. Mutation of the FxxFY motif to AxxAA in RIPK1 reduced interactions with AR. […] (C) Transfection of PC-3 prostate cancer cells with AR and RIPK1. PC-3 cells in 24-well plates were co-transfected with 300 ng MMTV-LUC reporter plasmid and 0.5 ng SV40-Renilla luciferase plasmid, together with 100 ng pCMV-Flag-AR and 100, 300 or 500 ng p3xFLAG- RIPK1. The total plasmid DNA content was made up to 1 µg with pCMV. After 16 h, ethanol or 10 nM DHT was added and cells incubated for an additional 16 h. DHT was used as the AR ligand while ARA70N served as the positive control. Relative LUC activity was determined using the dual luciferase system. (D) RIPK1 functional domain mapping in relation to AR transactivation. PC-3 cells were transfected with pCMV-Flag-AR and RIPK1 expression plasmid, P3xFlag-RIPK1 full-length, P3xFlag-RIPK1-(240-671) or P3xflag-RIPK1-(1-558) plasmid, and cultured overnight. Ethanol or 10 nM DHT was added and cells incubated for an additional 16 h. Relative LUC activity was determined using the dual luciferase system. (E) RIPK1 is expressed in benign prostatic hyperplasia tissue, displaying strong positivity (3+, > 90%) in the gland area but weak (1+, 50%) staining in the background. (F) Human prostate cancer tissues were immunostained for RIPK1. “T” indicates the tumor area (right side) and “Non-T” the non-tumor area (left side). RIPK1 expression was weak (1+, 80%) in the cancer area but remained strong (3+, 70%) in the peri-cancer area. The figures are representative of three benign prostatic gland hyperplasia and cancer tissues.
The PC-3 prostate cancer cell line was used for experiments. […]

In another data set the test system is NOD/SCID mice. In words: treatment toxicity monitoring in xenograft mice. The data set is classed as in vivo. To be noted: for changes in body weight, clinical signs and gross morphology: during the study period; for mouse mortality: in vivo. As to the method: All experiments involving laboratory animals were conducted in accordance with the Guidelines for Animal Experiments of Chang Gung Memorial Hospital and approved by the Animal Research Committee at the hospital. LNCaP cells were harvested, washed twice with phosphate-buffed saline, and resuspended at a final concentration of 5 × 10^6 cells/mL in Matrigel (BD Biosciences, San Jose, CA) containing basement membrane components. Next, 5 × 10^5 cells (100 μL per site) were subcutaneously injected into the flanks of 4–6 week-old male NOD/SCID mice (BioLASCO, Taiwan). Tumor development was confirmed within 2–3 weeks after injection of the same number of cell subclones. Treatment with different chemicals was initiated at the same time. Tumor dimensions were measured twice a week with calipers, and tumor volumes calculated using the formula: tumor volume (mm^3) = tumor length (mm) × [tumor width (mm)]^2 × 0.5. Three to five mice were used per group (with or without chemical treatment). Mice were sacrificed 4 weeks after chemical injection and tumors harvested for further analyses. For evaluation of treatment toxicity, animal mortality, changes in body weight, clinical signs and gross morphology were monitored during the experiment.

A further data set concerns LNCaP. In words: cell growth assay (MTT), LNCaP. The data set is classed as cell-based. To be noted: Homo sapiens, 48 h, Figure 4B, read-out: IC50, prostate cancer cell line growth. On the procedure: LNCaP, CWR22R, and PC-3 cells were grown in RPMI containing 10% FBS. Cells were plated at a density of 5 × 10^4 cells/well in 24-well plates overnight and incubated with difference concentrations of chemicals for 48 h. Cell growth was assessed using the 3-{4,5-dimethylthiazol-2-yl}-2,5-diphenyltetrazolium bromide (MTT) assay. At each time-point, 50 μl of 5 mg/ml MTT was added to each well containing 500 μl medium and incubated for 3 h, followed by the addition of 500 μl isopropyl alcohol to dissolve the reduced formazan product. Absorbance of each well was measured at a wavelength of 590 nm in a DU 640B spectrophotometer (Beckman, Fullerton, CA), according to the manufacturer’s protocol. Values represent mean OD590 ± SD from at least three independent reaction wells.

For the molecule `COc1cccc(Nc2nnc(-c3ccc(N(C)C)cc3)o2)c1` [LHJ-647], the “effect on AR transactivation in combination with enzalutamide” value in the data set with AR transactivation (1 µM enzalutamide plus 1 µM LHJ-647 (lane 9 vs. 4)) is on record as “additive effect”. In the data set with NOD/SCID mice, the “changes in body weight, clinical signs and gross morphology” value is recorded as “no significant alterations”; the mouse mortality entry is reported as “No mouse mortality was observed”. Moreover, the IC50 (in general, the concentration that inhibits the measured activity by half) in the data set on LNCaP was 1 to 10 µM.
With `Cc1ccc(-c2nnc(Nc3ccccc3)o2)cc1` [HWC-489], in the data set with AR transactivation (1 µM enzalutamide plus 0.1 µM HWC-489 (lane 14 vs. 4)), the “effect on AR transactivation in combination with enzalutamide” value is listed as “additive effect”. Also, in the data set with NOD/SCID mice, the “changes in body weight, clinical signs and gross morphology” value is reported as “no significant alterations”; the mouse mortality result is given as “No mouse mortality was observed”. The IC50 with LNCaP was 1 to 10 µM.
